The results in this text go back to paper PMC6704710, “Preclinical evaluation of 3D185, a novel potent inhibitor of FGFR1/2/3 and CSF-1R, in FGFR-dependent and macrophage-dominant cancer models” (Journal of Experimental & Clinical Cancer Research : CR, 2019).

Common to all, as to assay: Eurofins kinase panel
Common to all, as to assay type: biochemical
Common to all, as to conditions: read-out: Inhibition rate (%)

One experiment has as its target T1, AMPKα1(h) (Homo sapiens, UniProt Q13131).
T1 construct: purchased Eurofins (KinaseProfiler)

Another experiment concerns the target T2, ASK1(h) (Homo sapiens, UniProt Q99683).
T2 construct: purchased Eurofins (KinaseProfiler)
T2 sequence (Q99683 1-1374): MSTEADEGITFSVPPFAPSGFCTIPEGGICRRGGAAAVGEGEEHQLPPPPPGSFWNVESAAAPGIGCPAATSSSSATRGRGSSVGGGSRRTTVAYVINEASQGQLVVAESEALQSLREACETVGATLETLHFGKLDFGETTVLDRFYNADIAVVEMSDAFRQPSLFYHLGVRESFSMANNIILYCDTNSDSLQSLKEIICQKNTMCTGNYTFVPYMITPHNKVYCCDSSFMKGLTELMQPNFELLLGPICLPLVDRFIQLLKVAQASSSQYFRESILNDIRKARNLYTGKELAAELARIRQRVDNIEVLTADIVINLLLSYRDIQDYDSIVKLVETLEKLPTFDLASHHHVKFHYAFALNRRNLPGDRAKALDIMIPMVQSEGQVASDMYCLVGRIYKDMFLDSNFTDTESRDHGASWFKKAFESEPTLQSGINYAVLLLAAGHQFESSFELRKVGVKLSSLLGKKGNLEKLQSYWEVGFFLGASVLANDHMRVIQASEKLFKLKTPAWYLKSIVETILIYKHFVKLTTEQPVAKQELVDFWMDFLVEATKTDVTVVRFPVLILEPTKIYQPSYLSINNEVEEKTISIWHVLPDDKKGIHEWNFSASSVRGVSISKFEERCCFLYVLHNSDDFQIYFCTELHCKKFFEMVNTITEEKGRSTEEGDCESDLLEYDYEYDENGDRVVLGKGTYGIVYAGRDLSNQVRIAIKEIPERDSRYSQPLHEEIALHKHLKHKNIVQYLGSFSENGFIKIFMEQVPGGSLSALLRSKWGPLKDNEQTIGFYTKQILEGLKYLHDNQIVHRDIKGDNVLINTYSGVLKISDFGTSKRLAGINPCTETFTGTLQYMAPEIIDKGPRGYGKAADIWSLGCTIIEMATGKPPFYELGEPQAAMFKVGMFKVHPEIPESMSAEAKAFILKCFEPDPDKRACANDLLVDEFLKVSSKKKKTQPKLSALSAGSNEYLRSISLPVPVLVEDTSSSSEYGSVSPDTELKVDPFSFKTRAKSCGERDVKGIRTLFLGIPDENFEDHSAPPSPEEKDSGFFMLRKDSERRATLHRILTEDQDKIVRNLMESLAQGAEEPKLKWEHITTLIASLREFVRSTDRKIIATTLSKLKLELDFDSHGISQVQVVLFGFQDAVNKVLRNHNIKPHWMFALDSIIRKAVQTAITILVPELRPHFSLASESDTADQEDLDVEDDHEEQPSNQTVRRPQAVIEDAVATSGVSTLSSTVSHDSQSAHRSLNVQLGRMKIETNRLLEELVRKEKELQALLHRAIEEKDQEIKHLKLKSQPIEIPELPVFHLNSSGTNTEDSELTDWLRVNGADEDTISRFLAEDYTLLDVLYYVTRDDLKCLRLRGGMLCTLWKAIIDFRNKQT

A further experiment concerns the target T3, Met(h) (Homo sapiens, UniProt P08581).
T3 construct: purchased Eurofins (KinaseProfiler)

The target in another experiment is T4, NEK1(h) (Homo sapiens, UniProt Q96PY6).
T4 construct: purchased Eurofins (KinaseProfiler)
T4 sequence (Q96PY6 1-1258): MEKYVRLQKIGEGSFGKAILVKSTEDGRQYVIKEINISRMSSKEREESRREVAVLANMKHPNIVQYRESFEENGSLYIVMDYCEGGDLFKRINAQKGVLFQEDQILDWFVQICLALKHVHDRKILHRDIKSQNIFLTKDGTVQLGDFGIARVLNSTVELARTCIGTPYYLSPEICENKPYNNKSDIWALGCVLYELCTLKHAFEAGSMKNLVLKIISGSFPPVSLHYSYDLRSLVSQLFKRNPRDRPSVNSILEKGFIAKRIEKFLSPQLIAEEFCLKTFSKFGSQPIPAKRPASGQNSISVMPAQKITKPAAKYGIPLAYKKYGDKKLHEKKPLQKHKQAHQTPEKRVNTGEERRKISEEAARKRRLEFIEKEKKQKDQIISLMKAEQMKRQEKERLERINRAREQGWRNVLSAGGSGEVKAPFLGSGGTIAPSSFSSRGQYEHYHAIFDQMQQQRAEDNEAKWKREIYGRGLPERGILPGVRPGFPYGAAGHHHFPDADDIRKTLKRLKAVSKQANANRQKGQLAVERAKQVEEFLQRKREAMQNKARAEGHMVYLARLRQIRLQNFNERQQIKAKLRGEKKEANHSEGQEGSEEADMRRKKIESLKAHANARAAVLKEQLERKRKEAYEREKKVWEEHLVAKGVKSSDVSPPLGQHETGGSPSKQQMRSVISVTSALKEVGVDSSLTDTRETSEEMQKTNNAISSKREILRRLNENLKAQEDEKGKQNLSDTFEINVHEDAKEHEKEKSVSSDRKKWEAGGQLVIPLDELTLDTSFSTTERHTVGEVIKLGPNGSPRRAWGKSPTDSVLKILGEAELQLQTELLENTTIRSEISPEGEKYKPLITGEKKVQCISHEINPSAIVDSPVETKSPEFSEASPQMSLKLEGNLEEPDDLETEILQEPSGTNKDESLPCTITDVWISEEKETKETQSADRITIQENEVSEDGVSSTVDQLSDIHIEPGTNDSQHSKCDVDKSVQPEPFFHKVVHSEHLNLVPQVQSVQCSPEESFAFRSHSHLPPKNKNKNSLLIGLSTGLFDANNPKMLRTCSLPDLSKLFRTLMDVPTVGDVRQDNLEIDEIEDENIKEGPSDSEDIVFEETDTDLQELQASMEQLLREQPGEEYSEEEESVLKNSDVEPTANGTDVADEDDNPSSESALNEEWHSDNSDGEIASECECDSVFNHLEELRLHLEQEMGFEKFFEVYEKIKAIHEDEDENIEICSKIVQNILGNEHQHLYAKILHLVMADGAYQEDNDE

T3 sequence (P08581 25-1390): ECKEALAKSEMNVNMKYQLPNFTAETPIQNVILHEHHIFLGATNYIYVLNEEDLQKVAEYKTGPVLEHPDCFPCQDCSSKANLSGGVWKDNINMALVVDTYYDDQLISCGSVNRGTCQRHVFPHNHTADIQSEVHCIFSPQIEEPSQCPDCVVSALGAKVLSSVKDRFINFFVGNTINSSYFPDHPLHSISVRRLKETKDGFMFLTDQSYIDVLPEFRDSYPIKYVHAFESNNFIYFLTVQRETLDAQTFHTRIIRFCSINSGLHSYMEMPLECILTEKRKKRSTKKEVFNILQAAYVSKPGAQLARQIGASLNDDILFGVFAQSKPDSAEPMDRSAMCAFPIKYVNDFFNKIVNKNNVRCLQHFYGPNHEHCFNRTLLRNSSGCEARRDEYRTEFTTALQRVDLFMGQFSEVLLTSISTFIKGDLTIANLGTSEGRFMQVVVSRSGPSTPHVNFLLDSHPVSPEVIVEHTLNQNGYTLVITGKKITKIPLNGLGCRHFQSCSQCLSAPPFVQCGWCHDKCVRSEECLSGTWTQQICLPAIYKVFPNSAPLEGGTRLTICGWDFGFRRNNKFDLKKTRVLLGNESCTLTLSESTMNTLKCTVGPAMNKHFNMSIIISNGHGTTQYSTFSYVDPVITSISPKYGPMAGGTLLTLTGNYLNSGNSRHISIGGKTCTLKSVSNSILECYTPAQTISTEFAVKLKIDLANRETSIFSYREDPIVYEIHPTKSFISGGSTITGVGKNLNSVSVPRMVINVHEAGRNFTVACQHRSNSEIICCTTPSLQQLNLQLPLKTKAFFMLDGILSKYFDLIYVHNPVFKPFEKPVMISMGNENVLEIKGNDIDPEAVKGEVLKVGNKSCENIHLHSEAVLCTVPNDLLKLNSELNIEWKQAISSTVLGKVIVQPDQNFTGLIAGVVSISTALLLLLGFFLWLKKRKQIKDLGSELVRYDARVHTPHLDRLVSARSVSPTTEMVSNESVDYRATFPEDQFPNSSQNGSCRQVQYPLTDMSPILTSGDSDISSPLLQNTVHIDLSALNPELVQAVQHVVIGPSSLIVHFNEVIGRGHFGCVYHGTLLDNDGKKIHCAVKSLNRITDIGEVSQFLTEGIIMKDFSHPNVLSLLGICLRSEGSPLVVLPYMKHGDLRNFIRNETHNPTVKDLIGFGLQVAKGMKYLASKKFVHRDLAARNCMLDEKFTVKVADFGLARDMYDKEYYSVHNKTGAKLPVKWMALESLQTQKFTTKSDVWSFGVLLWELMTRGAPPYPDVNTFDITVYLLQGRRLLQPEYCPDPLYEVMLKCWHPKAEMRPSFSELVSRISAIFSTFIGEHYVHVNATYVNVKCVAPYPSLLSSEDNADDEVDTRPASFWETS
T1 sequence (Q13131 whole entry): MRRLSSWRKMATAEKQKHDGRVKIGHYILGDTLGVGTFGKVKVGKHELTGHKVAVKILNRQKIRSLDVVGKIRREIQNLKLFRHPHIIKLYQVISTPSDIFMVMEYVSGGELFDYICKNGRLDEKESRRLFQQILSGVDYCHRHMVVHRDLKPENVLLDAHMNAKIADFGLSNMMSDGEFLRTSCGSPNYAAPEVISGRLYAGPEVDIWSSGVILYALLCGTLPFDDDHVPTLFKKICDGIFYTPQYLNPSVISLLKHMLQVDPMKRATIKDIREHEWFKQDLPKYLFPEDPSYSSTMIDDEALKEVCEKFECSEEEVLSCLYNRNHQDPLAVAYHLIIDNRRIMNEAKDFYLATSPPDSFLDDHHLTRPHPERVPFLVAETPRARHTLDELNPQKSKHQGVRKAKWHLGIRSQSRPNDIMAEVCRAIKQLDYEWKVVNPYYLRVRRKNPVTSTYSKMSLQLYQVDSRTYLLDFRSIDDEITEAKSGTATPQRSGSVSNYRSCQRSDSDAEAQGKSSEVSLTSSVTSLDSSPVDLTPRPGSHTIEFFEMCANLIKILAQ
T1 sequence (Q9Y478 whole entry partner): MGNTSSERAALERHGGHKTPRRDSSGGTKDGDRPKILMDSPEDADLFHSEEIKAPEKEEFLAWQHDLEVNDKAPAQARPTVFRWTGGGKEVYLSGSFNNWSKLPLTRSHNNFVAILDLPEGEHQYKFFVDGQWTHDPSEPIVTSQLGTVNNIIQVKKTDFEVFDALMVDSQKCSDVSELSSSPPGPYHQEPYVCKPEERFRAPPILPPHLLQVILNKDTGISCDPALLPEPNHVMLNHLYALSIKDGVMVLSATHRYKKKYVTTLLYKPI
T1 sequence (P54619 whole entry partner): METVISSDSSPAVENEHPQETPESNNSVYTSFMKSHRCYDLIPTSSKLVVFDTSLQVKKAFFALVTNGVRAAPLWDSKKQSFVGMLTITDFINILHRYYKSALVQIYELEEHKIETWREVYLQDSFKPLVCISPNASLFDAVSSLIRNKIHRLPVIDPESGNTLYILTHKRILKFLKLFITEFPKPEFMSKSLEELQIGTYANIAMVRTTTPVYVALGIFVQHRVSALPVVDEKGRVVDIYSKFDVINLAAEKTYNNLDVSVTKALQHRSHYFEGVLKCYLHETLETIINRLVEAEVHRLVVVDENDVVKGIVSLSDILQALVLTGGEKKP

In general, inhibition refers to the relative decrease from the control value, in per cent. Regarding `COc1cc(OC)c(Cl)c(-c2ccc3c(NC(=O)c4ccc(N5CCNC(C)(C)C5)cc4)n[nH]c3n2)c1Cl` [3D185], the inhibition at 0.01 µM at AMPKα1(h) (10 nM) is -8%; on ASK1(h) (10 nM), -6%; at Met(h) (10 nM) it was 16%; at NEK1(h) (10 nM), 5%. Moreover, the inhibition at 0.1 µM on AMPKα1(h) (100 nM) is -6%; at ASK1(h) (100 nM), -7%; on Met(h) (100 nM), 15%; on NEK1(h) (100 nM) it was 3%. Besides, the inhibition at 1 µM on AMPKα1(h) (1000 nM) was -13%; on ASK1(h) (1000 nM) it was -2%; on Met(h) (1000 nM) it was 55%; on NEK1(h) (1000 nM), 11%.
